Consider 13 compounds from PubChem BioAssay (NCI).

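Cells were grown in 96-well plates and exposed to each compound for 48 hours at five concentrations; endpoints were interpolated linearly between bracketing concentrations, or set to the highest concentration if not reached. TGI: concentration producing complete growth inhibition.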

Some test systems named below: TK-10 renal; SNB-75 CNS; OVCAR-8 ovarian; MOLT-4 leukemia; SN12C renal; MDA-MB-435; HS 578T breast; SK-OV-3 ovarian; HCT-15 colon; A549 NSCLC; OVCAR-4 ovarian.
Holding throughout (assay): NCI-60 cell line screen, 48 h

Consider `CCC(=O)/C(=C\I)c1ccccc1`, for which the TGI in the assay with TK-10 renal stood at 28.3 µM; in the assay with SNB-75 CNS it was 3.48 µM; in the assay on OVCAR-8 ovarian, 3.68 µM; with MOLT-4 leukemia, 7.08 µM; with SN12C renal, 5.29 µM; with MDA-MB-435 it was 10.4 µM. Also, the TGI is above 100 µM in the assay on HS 578T breast, 30.2 µM in the assay with SK-OV-3 ovarian, 3.37 µM with HCT-15 colon and 37 µM in the assay on A549 NSCLC.

For the compound `Nc1ccc2ccc(-c3ccc[nH]3)nc2n1`, the TGI in the assay on OVCAR-4 ovarian, with TK-10 renal, in the assay with SNB-75 CNS, in the assay with OVCAR-8 ovarian, in the assay on SN12C renal and in the assay on MDA-MB-435 was above 100 µM throughout. For the same compound, the TGI in the assay on SK-OV-3 ovarian, with HCT-15 colon and in the assay on A549 NSCLC was above 100 µM each time.

`COc1ccc2c(c1)c1nn(CCN3CCCCC3)c3ccc4c(=O)n(CCN(C)C)c(=O)n2c4c13`: the TGI with OVCAR-4 ovarian is 0.0158 µM; in the assay on TK-10 renal it was 0.44 µM; in the assay on SNB-75 CNS, 0.0711 µM; with OVCAR-8 ovarian it was 0.3 µM; in the assay on SN12C renal, 0.0984 µM; with MDA-MB-435, 0.088 µM. The TGI came out at 0.412 µM in the assay on HS 578T breast, 2.91 µM in the assay on SK-OV-3 ovarian, 0.0825 µM with HCT-15 colon and 0.0497 µM with A549 NSCLC.

For the compound `CC12CCC(C(=Nc3cc(C(F)(F)F)cc(C(F)(F)F)c3)C1=O)C2(C)C` (configuration not stated), the TGI was above 100 µM in the assay with OVCAR-4 ovarian; above 100 µM with TK-10 renal; above 100 µM in the assay on OVCAR-8 ovarian; 44.2 µM in the assay on MOLT-4 leukemia; above 100 µM in the assay with MDA-MB-435; above 100 µM with SK-OV-3 ovarian. Moreover, the TGI in the assay with HCT-15 colon and in the assay with A549 NSCLC was above 100 µM each time.

Take `O=[N+]([O-])c1cccc(Cl)c1Oc1ccc(S(=O)(=O)/N=C(\NO)Nc2ccc(Cl)cc2)cc1`: the TGI with OVCAR-4 ovarian came to 26.3 µM; in the assay on TK-10 renal, 30.4 µM; in the assay with OVCAR-8 ovarian it was 39.6 µM; in the assay with MOLT-4 leukemia it was 19.3 µM; in the assay with SN12C renal, 25.7 µM; with MDA-MB-435, 29.2 µM. The TGI with HS 578T breast is 27.6 µM; in the assay with SK-OV-3 ovarian it was 31.8 µM; in the assay on HCT-15 colon, 33.8 µM; in the assay on A549 NSCLC, 28.7 µM.

For the compound `COc1cc(OC2OC(COC(=O)c3cc(O)c(O)c(O)c3)C(O)C(O)C2O)ccc1O` (configuration not stated), the TGI in the assay on OVCAR-4 ovarian, in the assay on TK-10 renal, in the assay with SNB-75 CNS, in the assay on OVCAR-8 ovarian, in the assay with MOLT-4 leukemia and in the assay on SN12C renal was above 100 µM throughout. In addition, the TGI is 63.3 µM with MDA-MB-435, above 100 µM in the assay with HS 578T breast, above 100 µM in the assay on HCT-15 colon and above 100 µM in the assay on A549 NSCLC.

Consider `COCC12CCC(OC)C34C5CC6(O)C(OC)CC(OC(C)=O)(C5C6OC(=O)c5ccccc5)C(C(OC)C13)C4N(C)C2` (configuration not stated), for which the TGI in the assay on OVCAR-4 ovarian, in the assay on TK-10 renal, in the assay on OVCAR-8 ovarian, in the assay with MOLT-4 leukemia, with SN12C renal and with MDA-MB-435 was above 100 µM each time. In addition, the TGI with HS 578T breast, in the assay on SK-OV-3 ovarian, in the assay on HCT-15 colon and in the assay with A549 NSCLC was above 100 µM each time.

For the compound `O=C1/C(=C/c2ccccc2)NC(=S)N1CN1CCCCC1`, the TGI is 92.6 µM in the assay on OVCAR-4 ovarian; above 100 µM in the assay with SNB-75 CNS; above 100 µM in the assay on OVCAR-8 ovarian; above 100 µM in the assay with MOLT-4 leukemia; above 100 µM in the assay on SN12C renal; above 100 µM with MDA-MB-435. In addition, the TGI in the assay with HS 578T breast, in the assay on SK-OV-3 ovarian, with HCT-15 colon and with A549 NSCLC was above 100 µM throughout.

With `Cc1cc(N2CCCC2)c([N+](=O)[O-])cc1[N+](=O)[O-]`, the TGI in the assay with OVCAR-4 ovarian, with SNB-75 CNS, in the assay with OVCAR-8 ovarian, in the assay with MOLT-4 leukemia, in the assay with SN12C renal and in the assay on MDA-MB-435 was above 100 µM throughout. The TGI with HS 578T breast, in the assay with SK-OV-3 ovarian, in the assay on HCT-15 colon and with A549 NSCLC was above 100 µM throughout.

In the case of `CCOC(=O)c1[nH]c2cccc3c2c1CC[C@H](NC(=O)C(F)(F)F)C3=O`, the TGI in the assay on OVCAR-4 ovarian was 80.5 µM; with TK-10 renal it was above 100 µM; in the assay with SNB-75 CNS, 56.7 µM; with OVCAR-8 ovarian, above 100 µM; with MOLT-4 leukemia, above 100 µM; with SN12C renal, above 100 µM. For the same compound, the TGI was above 100 µM with MDA-MB-435, 61.8 µM in the assay on HS 578T breast, above 100 µM with HCT-15 colon and above 100 µM in the assay with A549 NSCLC.

As to `CCOC(=O)C(=O)CC(=O)C1=C(c2ccccc2OC)CC(c2cccs2)=CC1=O`, the TGI in the assay with TK-10 renal was above 100 µM; with SNB-75 CNS it was 49.8 µM; in the assay on OVCAR-8 ovarian it was above 100 µM; with MOLT-4 leukemia it was above 100 µM; with SN12C renal, above 100 µM; with MDA-MB-435, above 100 µM. The TGI in the assay with HS 578T breast, in the assay on SK-OV-3 ovarian, in the assay with HCT-15 colon and in the assay on A549 NSCLC was above 100 µM each time.

On to `O=C(C(Cl)=C(N1CCCCC1)N1CCCCC1)C(Cl)Cl`, for which the TGI with OVCAR-4 ovarian, in the assay on TK-10 renal, in the assay with OVCAR-8 ovarian, in the assay with MOLT-4 leukemia, with SN12C renal and with MDA-MB-435 was above 100 µM in each case. Further, the TGI with HS 578T breast, in the assay with SK-OV-3 ovarian, in the assay on HCT-15 colon and in the assay on A549 NSCLC was above 100 µM in each case.

For `COC(=O)c1ccccc1C1=C([N+](=O)[O-])C(c2ccccc2)C(C#N)=C(N)O1` (configuration not stated), the TGI in the assay on TK-10 renal, in the assay with SNB-75 CNS, in the assay on OVCAR-8 ovarian, in the assay on MOLT-4 leukemia, in the assay on SN12C renal and with MDA-MB-435 was above 100 µM each time. The TGI is above 100 µM in the assay on HS 578T breast, above 100 µM in the assay with SK-OV-3 ovarian, 46.6 µM in the assay on HCT-15 colon and above 100 µM with A549 NSCLC.
